{"source": "PubChem BioAssay AID1259407", "about": "(Chemical Carcinogenesis Research Information System (CCRIS), 2018)", "system": "CCRIS mutagenicity, Ames/micronucleus/aberration tests", "experiment": "CCRIS mutagenicity studies", "key": {"[1]": {"conditions": "Test System: AMES SALMONELLA TYPHIMURIUM, Strain/Indicator: TA97, Metabolic Activation: NONE, Method: PREINCUBATION"}, "[2]": {"conditions": "Test System: AMES SALMONELLA TYPHIMURIUM, Strain/Indicator: TA98, Metabolic Activation: NONE, Method: PREINCUBATION"}, "[3]": {"conditions": "Test System: AMES SALMONELLA TYPHIMURIUM, Strain/Indicator: TA100, Metabolic Activation: NONE, Method: PREINCUBATION"}}, "note": "Activity calls are given as the source filed them. No rule for the calls is given here.", "data": [{"smiles": "COc1cc(O)c2c(=O)c3cc(O)ccc3oc2c1", "values": [{"measurement": "mutagenic call", "setting": "Test System: AMES SALMONELLA TYPHIMURIUM, Strain/Indicator: TA97, Metabolic Activation: RAT, LIVER, S-9, PHENOBARBITAL AND 5,6-BENZOFLAVONE, Method: PREINCUBATION", "result": "active; positive"}, {"measurement": "mutagenic call", "setting": "Test System: AMES SALMONELLA TYPHIMURIUM, Strain/Indicator: TA98, Metabolic Activation: RAT, LIVER, S-9, PHENOBARBITAL AND 5,6-BENZOFLAVONE, Method: PREINCUBATION", "result": "inactive; negative"}, {"measurement": "mutagenic call", "setting": "Test System: AMES SALMONELLA TYPHIMURIUM, Strain/Indicator: TA100, Metabolic Activation: RAT, LIVER, S-9, PHENOBARBITAL AND 5,6-BENZOFLAVONE, Method: PREINCUBATION", "result": "inactive; negative"}, {"measurement": "mutagenic call", "setting": "Test System: AMES SALMONELLA TYPHIMURIUM, Strain/Indicator: TA2637, Metabolic Activation: RAT, LIVER, S-9, 5,6-BENZOFLAVONE AND/OR SODIUM PHENOBARBITAL, Method: PREINCUBATION", "result": "active; positive"}, {"measurement": "mutagenic call", "setting": "Test System: AMES SALMONELLA TYPHIMURIUM, Strain/Indicator: TA2637, Metabolic Activation: RAT, LIVER, S-9, PHENOBARBITAL AND 5,6-BENZOFLAVONE, Method: PREINCUBATION", "result": "active; positive"}, {"measurement": "mutagenic call", "setting": "Test System: AMES SALMONELLA TYPHIMURIUM, Strain/Indicator: TA2637, Metabolic Activation: RAT, LIVER, S-105, 5,6-BENZOFLAVONE AND/OR SODIUM PHENOBARBITAL, Method: PREINCUBATION", "result": "inactive; negative"}]}, {"smiles": "O[C@@H]1[C@H]2O[C@H]2c2c(ccc3c4ccccc4c4ccccc4c23)[C@H]1O", "values": [{"measurement": "mutagenic call", "setting": "[1]", "result": "active; positive"}, {"measurement": "mutagenic call", "setting": "[2]", "result": "active; positive"}, {"measurement": "mutagenic call", "setting": "[3]", "result": "active; positive"}, {"measurement": "mutagenic call", "setting": "Test System: AMES SALMONELLA TYPHIMURIUM, Strain/Indicator: TA104, Metabolic Activation: NONE, Method: PREINCUBATION", "result": "active; positive"}, {"measurement": "mutagenic call", "setting": "Test System: CHINESE HAMSTER V-79, Strain/Indicator: V-79/6-THIOGUANINE, Metabolic Activation: NONE", "result": "active; positive"}]}, {"smiles": "Nc1ccc(Cc2ccc(N)c(Cc3ccc(N)cc3)c2)cc1", "values": [{"measurement": "mutagenic call", "setting": "Test System: AMES SALMONELLA TYPHIMURIUM, Strain/Indicator: TA97, Metabolic Activation: HAMSTER, LIVER, S-9, AROCLOR 1254 (10%), Method: PREINCUBATION", "result": "active; positive"}, {"measurement": "mutagenic call", "setting": "[1]", "result": "inactive; negative"}, {"measurement": "mutagenic call", "setting": "Test System: AMES SALMONELLA TYPHIMURIUM, Strain/Indicator: TA97, Metabolic Activation: RAT, LIVER, S-9, AROCLOR 1254 (10%), Method: PREINCUBATION", "result": "active; positive"}, {"measurement": "mutagenic call", "setting": "Test System: AMES SALMONELLA TYPHIMURIUM, Strain/Indicator: TA98, Metabolic Activation: HAMSTER, LIVER, S-9, AROCLOR 1254 (10%), Method: PREINCUBATION", "result": "active; positive"}, {"measurement": "mutagenic call", "setting": "[2]", "result": "inactive; negative"}, {"measurement": "mutagenic call", "setting": "Test System: AMES SALMONELLA TYPHIMURIUM, Strain/Indicator: TA98, Metabolic Activation: RAT, LIVER, S-9, AROCLOR 1254 (10%), Method: PREINCUBATION", "result": "active; positive"}, {"measurement": "mutagenic call", "setting": "Test System: AMES SALMONELLA TYPHIMURIUM, Strain/Indicator: TA100, Metabolic Activation: HAMSTER, LIVER, S-9, AROCLOR 1254 (10%), Method: PREINCUBATION", "result": "active; positive"}, {"measurement": "mutagenic call", "setting": "[3]", "result": "inactive; negative"}, {"measurement": "mutagenic call", "setting": "Test System: AMES SALMONELLA TYPHIMURIUM, Strain/Indicator: TA100, Metabolic Activation: RAT, LIVER, S-9, AROCLOR 1254 (10%), Method: PREINCUBATION", "result": "active; positive"}, {"measurement": "mutagenic call", "setting": "Test System: AMES SALMONELLA TYPHIMURIUM, Strain/Indicator: TA1535, Metabolic Activation: HAMSTER, LIVER, S-9, AROCLOR 1254 (10%), Method: PREINCUBATION", "result": "inactive; negative"}, {"measurement": "mutagenic call", "setting": "Test System: AMES SALMONELLA TYPHIMURIUM, Strain/Indicator: TA1535, Metabolic Activation: NONE, Method: PREINCUBATION", "result": "inactive; negative"}, {"measurement": "mutagenic call", "setting": "Test System: AMES SALMONELLA TYPHIMURIUM, Strain/Indicator: TA1535, Metabolic Activation: RAT, LIVER, S-9, AROCLOR 1254 (10%), Method: PREINCUBATION", "result": "inactive; negative"}, {"measurement": "mutagenic call", "setting": "Test System: AMES SALMONELLA TYPHIMURIUM, Strain/Indicator: TA1537, Metabolic Activation: HAMSTER, LIVER, S-9, AROCLOR 1254 (10%), Method: PREINCUBATION", "result": "active; positive"}, {"measurement": "mutagenic call", "setting": "Test System: AMES SALMONELLA TYPHIMURIUM, Strain/Indicator: TA1537, Metabolic Activation: RAT, LIVER, S-9, AROCLOR 1254 (10%), Method: PREINCUBATION", "result": "active; positive"}]}]}
